Measurements reported in patent US20050154037A1, “Methods of using zonisamide as an adjunctive therapy for partial seizures” (Eisai Co., Ltd., priority 2004, published 2005).

Columns and labels:
[1] = test system: dopaminergic and serotonergic neurotransmission; conditions: in vivo microdialysis; cited from earlier work
[2] = test system: voltage-dependent, transient inward currents (T-type Ca^2+ currents); conditions: in vitro; cited from earlier work
hepatic enzyme = conditions: cited from earlier work
[3] = test system: GABA/benzodiazepine receptor ionophore complex; conditions: cited from earlier work
[4] = set-up: species or system patients; conditions: human, in vivo
Description: The pharmacovigilance data that were collected, reviewed and analyzed provided the following information in respect of the incidence of NMS. To date, a total of 3 cases (two adult and one pediatric) fulfill the criteria of potential neuroleptic malignant syndrome. These cases were reviewed in detail for evaluation of possible safety signals. They were all deemed serious, and in all cases, the patients recovered with appropriate treatment.
Cases ZON1000813 and ZON1000929 are adult cases from Japan. In both cases the patients carried a diagnosis of Parkinson's disease (PD) and were enrolled in a double blind, placebo controlled […] study of zonisamide as a potential treatment for PD (Protocol AD81 ON-202-1). […]
Estimates of exposure, based upon retail and mail order prescriptions, indicate that the number of unique patients taking zonisamide capsules in the U.S. is about 37,276 (total prescriptions per year/average number of prescriptions per patient per year less a calculated percentage decrease based on estimated annual dropouts) in the time between approval in 2000 and December 2002. […] Similarly, the incidences of NMS estimated herein are unlikely to be higher than calculated. Based on the exposure data and number of NMS cases, the incidence of NMS in the U.S. and Japan is calculated to be about 1:37,276 unique patients and 1:592,588 unique patients, respectively.

carbonic anhydrase = conditions: relative to acetazolamide; called weak; cited from earlier work
[5] = test system: cultured mouse spinal cord neurons; conditions: 10-30 μg/mL, cited from earlier work
[6] = NMS case reports: onset of symptoms after cessation of zonisamide therapy; assay type: in vivo, patients; conditions: person with Parkinson's Disease
Description: Cases ZON1000813 and ZON1000929 are adult cases from Japan. In both cases the patients carried a diagnosis of Parkinson's disease (PD) and were enrolled in a double blind, placebo controlled […] study of zonisamide as a potential treatment for PD (Protocol AD81 ON-202-1). In both cases the development of NMS appeared after the withdrawal of zonisamide (from 2 days to 14 days, respectively). In the former case, the study blind was broken, and the patient was documented to be on study medication (zonisamide), while in the second case, the blind was not broken. Case ZON1000926 is a spontaneous pediatric case from the US. In all of these cases there were weak or no confounding factors present.
A person carried a diagnosis of Parkinson's Disease (PD). The patient was enrolled in a double-blind, placebo controlled Phase II study designed to assess the potential utility of zonisamide in the treatment of PD. The patient's symptoms of NMS appeared 2 days after cessation of zonisamide therapy. Patients with PD are known to be at a rare, but increased risk for NMS. But NMS can occur spontaneously. See Ueda, et al., Neurology, Vol. 52, pp. 777-781, 1999.
A person carried a diagnosis of Parkinson's Disease (PD). The patient was enrolled in a double-blind, placebo controlled Phase II study designed to assess the potential utility of zonisamide in the treatment of PD. […]

sodium channels = conditions: in vitro; cited from earlier work
rat hippocampal slices = conditions: 10-30 μg/mL; cited from earlier work

## NS(=O)(=O)Cc1noc2ccccc12 [zonisamide, 1,2-benzisoxazole-3-methanesulfonamide]
[1]
  dopaminergic and serotonergic neurotransmission: facilitates
[2]
  effect on voltage-dependent, transient inward currents (T-type Ca2+ currents): reduces
Hepatic enzyme
  hepatic enzyme induction: not known to be a hepatic enzyme inducer
[3]
  changes in chloride flux: does not produce changes in chloride flux
[3]; in an allosteric fashion
  binding to the GABA/benzodiazepine receptor ionophore complex: binds
[4]
  cases that fulfill the criteria of potential neuroleptic malignant syndrome: 3 cases
  incidence of NMS: about 1:37,276 unique patients
Carbonic anhydrase
  carbonic anhydrase inhibition compared to acetazolamide: 1/50
[5]
  synaptically-driven electrical activity: suppresses
[5]; cultured mouse spinal cord neurons
  postsynaptic GABA or glutamate responses: without affecting
[6]; Phase II study (Example 1)
  appearance of NMS symptoms after cessation of zonisamide therapy: 2 days
[6]; Phase II study, blind not broken (Example 2)
  appearance of NMS symptoms after cessation of study medication: 14 days
Sodium channels
  effect on sodium channels: blocks sodium channels
Rat hippocampal slices
  neuronal or glial uptake of [3H]-GABA: without affecting
